Source: patent publication EP4650353A1 (Shanghai Institute of Materia Medica, Chinese Academy of …, priority 2023, dated 2024)

Legend:
hGLP-1R transgenic mice = assay: Hypoglycemic effect of compound 76-1 (oral glucose tolerance test); assay type: in vivo
Method: Mouse model: hGLP-1R transgenic mice, 6 female mice per experimental group.
Experimental procedure: The mice were starved overnight, and the blood sugar in the tail of the mice was measured. 30 minutes after oral administration, the blood sugar was measured again as the blood sugar at zero point. Then, 2g/kg of sugar was given orally. 15min, 30min, 60min, and 90min after sugar administration, the blood sugar was measured using a blood glucose meter.

[1] = tested on: hGLP-1 receptor knock-in mice; assay: Long-term administration in high-fat diet fed hGLP-1R mice for weight loss; assay type: in vivo; details: ammonium salt
Method: (§1) Genetically engineered hGLP-1R gene knock-in mice, male, 8-10 weeks old, specific pathogen free (SPF) grade, were purchased from Biocytogen Jiangsu Gene Biotechnology Co., Ltd. All experimental animals were housed in the SPF-level environment of the National Compound Sample Library animal room, with a temperature of 24±2°C, a relative humidity of 40-60%RH, an air cleanliness level of 7, and a day and night light-dark cycle of 12h/12h; they were continuously supplied with cobalt-60 radiation-sterilized complete mouse granular feed (Shanghai Shilin Biotechnology Co., Ltd., maintenance feed for rats and mice), and were allowed to drink tap water (sterilized with high-pressure steam) without interruption, and were allowed to drink it freely. The cages were transparent polyetherimide cages (Suzhou Fengshi Experimental Animal Equipment Co., Ltd., CP-8 mouse cages), and the bedding was corn cobs (Tezhou Gumei Agricultural Technology Co., Ltd., used after high-pressure steam sterilization). There were 3-5 animals in each cage, and the cage card indicated the IACUC approval number, experiment number, experiment start time, person in charge, experimenter, animal source, group and animal number. The purchased mice were adapted to this breeding environment for at least 7 days before being used in experiments. The animal use methods in this study were approved by the IACUC Committee of the Shanghai Institute of Materia Medica.
The mice were weighed every day, and 24 hours after the last administration, the body fat and muscle content of the mice were detected using a Bruker desktop nuclear magnetic resonance spectrometer (model LF90II). • (4) Experimental results

human GLP-1 receptor = target: T1, human GLP-1 receptor (Homo sapiens, UniProt P43220); assay: GLP-1 receptor-mediated agonist activity: cAMP level in hGLP-1R/HEK293 cell line (HTRF); assay type: cell-based; details: cAMP levels in hGLP-1R/HEK293 cell line; Table 1; read-out: determined EC50
T1 construct: HA (N); expressed in transfected cells

[2] = tested on: hGLP-1 receptor knock-in mice; assay: Mouse food intake suppression experiment (compound 76-1); assay type: in vivo; details: 10 or 30 mg/kg oral
Method: as §1, with “The animal use methods in this study were approved by the IACUC Committee of the Shanghai Institute of Materia Medica.” left out

[3] = tested on: hGLP-1 receptor knock-in mice; assay: Oral glucose tolerance test in mice; assay type: in vivo
Method: as §1
60 minutes after oral administration, blood glucose was measured again as zero-point blood glucose. Then, 2 g/kg of sugar was orally administered, and blood glucose was measured using a blood glucose meter 15 minutes, 30 minutes, 60 minutes, and 90 minutes after sugar administration. In order to explore the effect of long-term administration on glucose tolerance, 2 g/kg of sugar was orally administered again […] the administration of the compound, and the blood glucose changes were measured at 180 min, 195 min, 210 min, 240 min, and 270 min.

[4] = tested on: hGLP-1 receptor knock-in mice; assay: Mouse food intake suppression experiment (compound 19); assay type: in vivo; details: 30 mg/kg oral
Method: as §1, with “The animal use methods in this study were approved by the IACUC Committee of the Shanghai Institute of Materia Medica.” left out

hERG potassium channels = hERG potassium channels (Homo sapiens, UniProt Q12809); assay: cell-based
Method: CHO cells expressing hERG protein were cultured in 175 cm^2 culture flasks. When the cell density grew to 60-80%, the culture medium was removed, the cells were washed once with 7 mL PBS, and then 3 mL Detachin was added for digestion. After digestion was complete, 7 mL of culture medium was added to neutralize, then centrifuged. The supernatant was aspirated, and 5 mL of culture medium was added to resuspend to ensure that the cell density is 2-5×10^6/mL.
Both the single-cell high-impedance sealing and whole-cell mode formation processes were automatically completed by the Qpatch instrument. After obtaining the whole-cell recording mode, the cell was clamped at -80 mV. Before a 5-second +20 mV depolarizing stimulus was given, a 50-ms -50 mV pre-voltage was given, and then the cell was repolarized to -50 mV for 5 seconds and then returned to -80 mV. This voltage stimulation was applied every 15 seconds. After recording for 2 minutes, the extracellular solution was recorded for 2 minutes. Then the drug administration process began. The compound concentration started from the lowest tested concentration. Each tested concentration was given for 2 minutes. […] At least three cells were tested for each concentration (n≥3).
The compound stock solution was diluted with extracellular fluid, 5 µL of 20 mM compound stock solution was added to 2495 µL extracellular fluid, diluted 500 times to 40 µM, and then serially diluted 3 times in extracellular fluid containing 0.2% DMSO (v/v) to obtain the final concentration to be tested.
The experimental data were analyzed by XLFit software.

β-arrestin 1 = assay: NanoBiT recruitment of β-arrestin 1 by GLP-1R in HEK293 cells; assay type: cell-based, human; details: endogenous GLP-1 = 100%; Figure 1, n=3
Description: (§2) The Promega NanoBiT protein-protein reaction system was used to detect the recruitment of β-arrestin 1 and β-arrestin 2 by GLP-1R. The NanoBit Protein-Protein Reaction System was a dual-subunit system based on NanoLuc luciferase that could be used to detect protein-protein interactions in cells. The LgBiT (17.6 kDa) and SmBiT (11 amino acids) subunits were fused to the proteins of interest, respectively. When the proteins of interest interact, the two subunits came into close proximity to form an enzyme with catalytic activity, which could catalyze the luminescence of the luciferase substrate. Firstly, the human GLP-1R gene was connected to the N-terminus of LgBit, the β-arrestin 1/2 gene was cloned to the C-terminus of SmBit, and the fusion protein was introduced into the pcDNA3.0 vector to construct plasmids expressing hGLP-1R-LgBit and SmBit-β-arrestin 1/2 fusion proteins. The hGLP-1R-LgBit plasmid and SmBit-β-arrestin 1 (or SmBit-β-arrestin 2) plasmid were co-transfected into HEK293 cells at a ratio of 1 µg plasmid/2×10^6 cells.

β-arrestin 2 = assay: NanoBiT recruitment of β-arrestin 2 by GLP-1R in HEK293 cells; assay type: cell-based, human; details: endogenous GLP-1 = 100%; Figure 2, n=3
Description: as §2

T1 sequence (P43220 24-463): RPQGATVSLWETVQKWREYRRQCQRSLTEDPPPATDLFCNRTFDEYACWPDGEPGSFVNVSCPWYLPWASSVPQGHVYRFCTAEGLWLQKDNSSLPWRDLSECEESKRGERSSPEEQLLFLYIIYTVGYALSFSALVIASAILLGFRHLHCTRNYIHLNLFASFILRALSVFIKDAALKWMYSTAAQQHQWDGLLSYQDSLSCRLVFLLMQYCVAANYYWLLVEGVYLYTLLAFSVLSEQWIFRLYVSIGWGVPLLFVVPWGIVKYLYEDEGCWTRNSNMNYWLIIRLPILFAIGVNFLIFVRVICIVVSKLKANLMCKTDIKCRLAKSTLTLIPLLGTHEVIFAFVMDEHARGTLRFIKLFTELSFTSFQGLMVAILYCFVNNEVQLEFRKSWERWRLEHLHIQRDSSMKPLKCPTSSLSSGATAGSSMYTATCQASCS
Sequence of hERG potassium channels (Q12809 whole entry): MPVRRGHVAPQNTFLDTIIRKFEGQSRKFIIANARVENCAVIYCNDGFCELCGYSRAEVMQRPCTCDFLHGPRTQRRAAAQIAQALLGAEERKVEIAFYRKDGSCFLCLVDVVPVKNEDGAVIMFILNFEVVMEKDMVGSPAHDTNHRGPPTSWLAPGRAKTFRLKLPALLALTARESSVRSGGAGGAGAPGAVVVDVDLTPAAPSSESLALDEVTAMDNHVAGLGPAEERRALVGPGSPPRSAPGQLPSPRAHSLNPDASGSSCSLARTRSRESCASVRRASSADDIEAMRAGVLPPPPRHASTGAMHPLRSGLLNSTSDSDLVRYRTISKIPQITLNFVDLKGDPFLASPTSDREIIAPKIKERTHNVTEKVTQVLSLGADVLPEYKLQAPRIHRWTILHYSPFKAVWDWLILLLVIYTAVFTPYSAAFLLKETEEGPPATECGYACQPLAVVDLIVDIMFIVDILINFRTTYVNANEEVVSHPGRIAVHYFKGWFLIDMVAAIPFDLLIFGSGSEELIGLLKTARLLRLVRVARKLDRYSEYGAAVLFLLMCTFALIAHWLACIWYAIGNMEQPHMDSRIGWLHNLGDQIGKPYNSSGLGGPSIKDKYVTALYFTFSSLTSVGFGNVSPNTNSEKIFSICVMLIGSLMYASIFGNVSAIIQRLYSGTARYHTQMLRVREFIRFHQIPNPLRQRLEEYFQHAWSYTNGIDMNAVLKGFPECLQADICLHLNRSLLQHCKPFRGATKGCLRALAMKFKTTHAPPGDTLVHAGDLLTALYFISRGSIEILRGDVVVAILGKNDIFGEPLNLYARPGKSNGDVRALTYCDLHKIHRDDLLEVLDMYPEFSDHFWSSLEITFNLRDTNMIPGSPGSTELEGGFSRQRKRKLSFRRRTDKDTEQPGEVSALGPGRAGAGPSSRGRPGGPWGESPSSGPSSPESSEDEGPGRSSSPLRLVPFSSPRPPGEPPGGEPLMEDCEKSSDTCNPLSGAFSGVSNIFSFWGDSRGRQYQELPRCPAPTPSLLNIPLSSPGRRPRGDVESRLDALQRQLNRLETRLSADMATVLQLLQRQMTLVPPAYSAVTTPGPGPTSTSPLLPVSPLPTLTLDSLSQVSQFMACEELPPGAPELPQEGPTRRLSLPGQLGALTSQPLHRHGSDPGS

| SMILES | area under the blood glucose curve (AUC) (hGLP-1R transgenic mice; ammonium salt, 0.1, 0.3 mg/kg oral) | blood glucose level (hGLP-1R transgenic mice; ammonium salt, 0.1, 0.3 mg/kg oral, 30 min before 2 g/kg sugar) | effective dose (hGLP-1R transgenic mice; ammonium salt, oral, oral glucose tolerance test) | weight gain of HFD-fed mice ([1]; 30 mg/kg by gavage once a day, 15 days) | reduce body weight compared with the blank control group ([1]; 30 mg/kg once a day, after 15 days of administration, HFD) | body fat and lean (muscle) content change trend in HFD mice ([1]; 30 mg/kg, after 15 days of administration) | EC50 (human GLP-1 receptor) | effect on food intake compared with positive control PF-06882961 ammonium salt at the same dose [2] | food intake ([2]; ammonium salt, within 0 to 12 hours, fasted 6 h) | effect compared with positive control PF-06882961 ammonium salt at the same dose ([3]; 1 mg/kg oral, oral glucose tolerance test) | lowering blood sugar in long-term oral glucose tolerance test ([3]; ammonium salt, 1 mg/kg oral, second sugar load 240 min after administration, AUC(180-270), vs PF-06882961 ammonium salt) | blood glucose area under the curve ([3]; ammonium salt, orally administered at 1 mg/kg, AUC(0-90), vs blank control) | blood glucose concentration ([3]; ammonium salt, orally administered at 1 mg/kg, vs blank control) | effect on food intake compared with positive control PF-06882961 ammonium salt at the same dose [4] | food intake ([4]; ammonium salt, within 0 to 12 hours after administration) | IC50 (hERG potassium channels) | maximum agonistic effect (Emax) recruiting β-arrestin 1 (β-arrestin 1) | maximum agonistic effect (Emax) recruiting β-arrestin 2 (β-arrestin 2) |
| --- | --- | --- | --- | --- | --- | --- | --- | --- | --- | --- | --- | --- | --- | --- | --- | --- | --- | --- |
| [2H]C([2H])([2H])C([2H])([2H])Oc1cc(C(=O)O)cc2c1nc(CN1CCN(c3cccc4c3O[C@@](C)(c3ccc(Cl)cc3F)O4)C=N1)n2C[C@@H]1CCO1 [Compound 76-1, 2-((4-((S)-2-(4-chloro-2-fluorophenyl)-2-methylbenzo[d][1,3]dioxol-4-yl)-5,6-dihydro-1,2,4-triazin-1(4H)-yl)methyl)-4-(ethoxy-d5)-1-(((S)-oxetan-2-yl)methyl)-1H-benzo[d]imidazole-6-carboxylic acid] | dose-dependently reduce | dose-dependently reduce | ≤ 0.1 mg/kg | effectively inhibit the weight gain | 20.4% | effectively inhibit this change trend | 0.0016 nM | better than the positive control PF-06882961 ammonium salt | significantly inhibit the food intake |  |  |  |  |  |  |  |  |  |
| COc1cc(C(=O)O)cc2c1nc(CN1CCC(c3cccc(OCc4ccc(Cl)cc4F)n3)CC1)n2C[C@@H]1CCO1 [Compound 19, (S)-2-((4-(6-((4-chloro-2-fluorobenzyl)oxy)pyridin-2-yl)piperidin-1-yl)methyl)-4-methoxy-1-(oxetan-2-ylmethyl)-1H-benzo[d]imidazole-6-carboxylic acid] |  |  |  |  |  |  | 0.0026 nM |  |  | better than the positive control PF-06882961 ammonium salt | more significant effect in lowering blood sugar | significantly reduce | significantly reduce | better than the positive control PF-06882961 ammonium salt | significantly inhibit the food intake | 12500 nM |  |  |
| CC[C@H](C)[C@H](NC(=O)[C@H](Cc1ccccc1)NC(=O)[C@H](CCC(=O)O)NC(=O)[C@H](CCCCN)NC(=O)[C@H](C)NC(=O)[C@H](C)NC(=O)[C@H](CCC(N)=O)NC(=O)CNC(=O)[C@H](CCC(=O)O)NC(=O)[C@H](CC(C)C)NC(=O)[C@H](Cc1ccc(O)cc1)NC(=O)[C@H](CO)NC(=O)[C@H](CO)NC(=O)[C@@H](NC(=O)[C@H](CC(=O)O)NC(=O)[C@H](CO)NC(=O)[C@@H](NC(=O)[C@H](Cc1ccccc1)NC(=O)[C@@H](NC(=O)CNC(=O)[C@H](CCC(=O)O)NC(=O)[C@H](C)NC(=O)[C@@H](N)Cc1c[nH]cn1)[C@@H](C)O)[C@@H](C)O)C(C)C)C(=O)N[C@@H](C)C(=O)N[C@@H](Cc1c[nH]c2ccccc12)C(=O)N[C@@H](CC(C)C)C(=O)N[C@H](C(=O)N[C@@H](CCCCN)C(=O)NCC(=O)N[C@@H](CCCNC(=N)N)C(N)=O)C(C)C [GLP-1] |  |  |  |  |  |  |  |  |  |  |  |  |  |  |  |  | 100% | 100% |
